Source: the supplement of paper PMC13380429

Columns and labels:
Details in all cases: 72 h
Vero E6 [1] = experiment: cell viability relative to DMSO; higher = less toxic
U2OS [2] = experiment: as above
Caco-2 [3] = experiment: as above
Calu-3 [4] = experiment: as above
HepG2 [5] = experiment: as above
Vero E6 [6] = experiment: drug sensitivity score (DSS) for viability; higher = more toxic; extreme values may be limits of the assay
U2OS [7] = experiment: as above
Caco-2 [8] = experiment: as above
Calu-3 [9] = experiment: as above
HepG2 [10] = experiment: as above
Vero E6 [11] = experiment: relative viability EC50 (midpoint between 100% and the lowest measured viability); higher = less toxic
U2OS [12] = experiment: as above
Caco-2 [13] = experiment: as above
Calu-3 [14] = experiment: as above
HepG2 [15] = experiment: as above

Structure (SMILES)	cell viability (Vero E6 [1]; 1 nM) [%]	cell viability (Vero E6 [1]; 10 nM) [%]	cell viability (Vero E6 [1]; 100 nM) [%]	cell viability (Vero E6 [1]; 1000 nM) [%]	cell viability (Vero E6 [1]; 10000 nM) [%]	cell viability (U2OS [2]; 1 nM) [%]	cell viability (U2OS [2]; 10 nM) [%]	cell viability (U2OS [2]; 100 nM) [%]	cell viability (U2OS [2]; 1000 nM) [%]	cell viability (U2OS [2]; 10000 nM) [%]	cell viability (Caco-2 [3]; 1 nM) [%]	cell viability (Caco-2 [3]; 10 nM) [%]	cell viability (Caco-2 [3]; 100 nM) [%]	cell viability (Caco-2 [3]; 1000 nM) [%]	cell viability (Caco-2 [3]; 10000 nM) [%]	cell viability (Calu-3 [4]; 1 nM) [%]	cell viability (Calu-3 [4]; 10 nM) [%]	cell viability (Calu-3 [4]; 100 nM) [%]	cell viability (Calu-3 [4]; 1000 nM) [%]	cell viability (Calu-3 [4]; 10000 nM) [%]	cell viability (HepG2 [5]; 1 nM) [%]	cell viability (HepG2 [5]; 10 nM) [%]	cell viability (HepG2 [5]; 100 nM) [%]	cell viability (HepG2 [5]; 1000 nM) [%]	cell viability (HepG2 [5]; 10000 nM) [%]	drug sensitivity score (Vero E6 [6])	drug sensitivity score (U2OS [7])	drug sensitivity score (Caco-2 [8])	drug sensitivity score (Calu-3 [9])	drug sensitivity score (HepG2 [10])	relative viability EC50 (Vero E6 [11]) [µM]	relative viability EC50 (U2OS [12]) [nM]	relative viability EC50 (Caco-2 [13]) [µM]	relative viability EC50 (Calu-3 [14]) [µM]	relative viability EC50 (HepG2 [15]) [nM]
CC[N+](CC)(CCNC(=O)C(=O)NCC[N+](CC)(CC)Cc1ccccc1Cl)Cc1ccccc1Cl [ambenonium]	96.4	95.5	97.9	93.1	95.3	97.7	96.3	100	94.9	100	94.7	96	93.6	93.9	92.5	103	99.8	103	97.6	141	98.6	105	96.6	100	105	0	0	0	0	0	> 10	> 10000	> 10	> 10	> 10000
CO[C@@]1(NC(=O)CSCC#N)C(=O)N2C(C(=O)O)=C(CSc3nnnn3C)CS[C@@H]21 [cefmetazole]	96.7	102	102	97.9	93.2						109	106	108	94.7	105	101	97.6	99.7	108	108	106	105	99.7	97.4	117	0		0	0	0	> 10		> 10	> 10	> 10000
Cc1ccc(F)c(NC(=O)Nc2ccc(-c3cccc4[nH]nc(N)c34)cc2)c1 [linifanib]	93.1	101	99.9	103	110	97.4	96.6	101	96.5	92.2	101	100	101	89.5	106	106	89.4	99.1	86.9	69.9	94.1	110	115	29.9	13.1	0	0	0	2.7	12.8	> 10	> 10000	> 10		583
CCN(CC)CC(=O)Nc1c(C)cccc1C [lidocaine]	108	101	105	97.8	97.9	99.7	105	94.8	97.2	100	103	108	90.8	80.4	97						101	97.4	88.1	116	107	0	0	3.6		0	> 10	> 10000	> 10		> 10000
CCC(=O)N[C@@H]1Cc2ccccc2[C@H](c2ccccc2)C1 [4-P-PDOT]	95.9	97.4	100	96.1	98.5						103	95.4	100	95.1	94.4	105	94.6	104	114	102	106	111	99	88.9	108	0		0	0	0	> 10		> 10	> 10	> 10000
C[C@@H]1CN(Cc2ccc(F)cc2)CCN1C(=O)COc1ccc(Cl)cc1NC(N)=O	103	113	93.3	104	93	103	96.1	99.3	95	72.8	98.2	95.7	92.9	81.3	66.6	97.1	104	98.1	104	85	93.3	101	87.7	51.9	19.1	0	1.9	3.6	0.1	10.8	> 10			> 10	635
CSc1nc(N)cc(Oc2ccc(-c3nnc(Nc4cccc(C(F)(F)F)c4)[nH]3)cc2)n1 [KG-5]	98.9	103	105	94.8	33.1	102	101	97.5	92.9	34.7	96.7	98.7	105	84.1	35.2	90.3	95.4	92.7	93.2	61.8	93.9	96	92.5	99.6	25.2	4.5	4.8	6	3	4.2	2.54	2260	1.57		3120
Cc1sc2c(c1C)C(c1ccc(Cl)cc1)=N[C@@H](CC(N)=O)c1nnc(C)n1-2 [CPI-203]	96.4	93.9	73.7	15.4	11	93.9	94.4	86.1	57.9	43.6	100	95.8	88.9	76.3	70.5	98.3	105	100	78.3	60	91.8	94.3	81.3	40.2	35.2	18.6	9.3	4.7	4.7	13.2	0.172	302			186
